US20130337579A1, “Methods for Determining Protein Ligand Binding” (UNIVERSITY OF MARYLAND, COLLEGE PARK, priority 2010, published 2013)

Experiments:
Vc2* riboswitch RNA = experiment: DRaCALA of cdiGMP binding to biotinylated Vc2* RNA immobilized by streptavidin; details: Vc2*-biotin RNA diluted, 4 nM 32P-cdiGMP
Method: FIG. 19. Vc2* RNA binding to ^32P-cdiGMP is detected by DRaCALA. (A) Spots visualized by phosphorimager with streptavidin used to immobilize biotinylated RNA. The binding reaction contained 4 nM ^32P-cdiGMP, 1 μM RNA, and 200 nM streptavidin in buffer (10 mM KCl, 10 mM sodium cacodylate, 3 mM MgCl2). (B) The affinity of Vc2*-biotin RNA for cdiGMP was determined with both EMSA and DRaCALA by diluting RNA in the binding reaction. The fraction bound is normalized such that 1.0 represents maximal binding.
We have shown that protein interaction with DNA can be detected by DRaCALA. We wondered if the principle of DRaCALA would also apply to ribonucleic acids. In particular, can the DRaCALA technology be used to detect the interaction of riboswitches with their small molecule ligands. One example of such an interaction that has been of recent interest is the cdiGMP responsive Vc2 riboswitch identified in bacteria. To study such an interaction with DRaCALA, one of the binding partners must be immobilized. […] The biotinylated riboswitch was sequestered by streptavidin, allowing the nucleic acid to take the place of protein as the immobile partner in the binding assay. Vc2* was tested directly for sequestration of cdiGMP and also biotinylated and tested for binding to cdiGMP in the presence or absence of streptavidin. […]

[1] = molecular target: T1, Alg44PilZ expressed in E. coli BL21(DE3) (Pseudomonas aeruginosa, UniProt Q9HY69); experiment: DRaCALA of whole cell lysates of E. coli BL21(DE3) expressing Alg44PilZ; type: binding, P. aeruginosa
T1 construct: E. coli BL21(DE3) expressing Alg44PilZ and variants; expressed in transfected cells; host or cells: E. coli BL21(DE3), whole cell lysate
Excerpt: A major limitation of most biochemical assays is the requirement for purified protein. We asked whether DRaCALA could be applied to crude extracts to overcome this limitation. Alg44PilZ binding to cdiGMP requires a number of conserved residues, including R17, R21, D44 and S46, in the PilZ domain of the protein. E. coli BL21(DE3) expressing Alg44PilZ and variants with R21A, D44A, S46A, and R17A/R21A substitutions were lysed and tested for binding to cdiGMP using DRaCALA. […] Only the whole cell lysates from E. coli expressing wild-type Alg44PilZ sequestered ^32P-cdiGMP (FIG. 4A). […] A significant difference between the bound fractions for cdiGMP or GTP competition experiments was detected for the wild-type Alg44PilZ, but not for the PilZ domain mutants (FIGS. 4A and 4B). […]
Protein or whole cell lysates in 1× cdiGMP binding buffer (20 μl) was mixed with 4 nM of radiolabeled nucleotide and allowed to incubate for 10 minutes at room temperature. […] These mixtures were pipetted (2.5-5 μl) onto dry, untreated nitrocellulose (GE Healthcare) in triplicate and allowed to dry completely before quantification. An FLA7100 Fujifilm Life Science Phosphorimager was used to detect luminescence following a 5-minute exposure of blotted nitrocellulose to phosphorimager film. Data was quantified using Fujifilm Multi Gauge software v3.0. […]

Alg44PilZ = molecular target: T2, Alg44PilZ (Pseudomonas aeruginosa, UniProt Q9HY69); details: estimated by filter binding, previous studies; cited from earlier work
T2 construct: Previous studies of the dissociation rate of cdiGMP from Alg44PilZ
T2 sequence (Q9HY69 16-116): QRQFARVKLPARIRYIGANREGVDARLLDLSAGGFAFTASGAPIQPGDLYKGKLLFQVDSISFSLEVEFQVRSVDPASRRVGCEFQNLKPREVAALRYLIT

T1 sequence (Q9HY69 16-116): as above

Nc1nc2c(ncn2[C@@H]2O[C@@H]3CO[P@](=O)(O)O[C@H]4[C@@H](O)[C@H](n5cnc6c(=O)[nH]c(N)nc65)O[C@@H]4CO[P@](=O)(O)O[C@H]3[C@H]2O)c(=O)[nH]1 [cdiGMP, cyclic-di-GMP]
Kd (Vc2* riboswitch RNA): 7.8 nM | specific sequestration by whole cell extracts with soluble or insoluble protein ([1]; Alg44PilZ with or without MBP tag, BL21 whole cell extracts): specifically sequester | sequestration of 32P-cdiGMP by whole cell lysate ([1]; E. coli BL21(DE3) expressing wild-type Alg44PilZ): sequestered | half-life of the complex (Alg44PilZ): 5 min
